Where a name gives a salt, the structure may show the parent alone.
These molecules were tested against ROCK2 (Homo sapiens, UniProt O75116) (assay: ROCK2 kinase inhibition assay (LABCHIP 3000 Reader, FITC peptide substrate)). Details: not given.
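Further: rho kinase reaction read by separating phosphorylated from unphosphorylated peptide on chip, with inhibition of kinase activity computed per concentration across a dose-response series.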

ROCK2, sequence (O75116 whole entry, species assumed): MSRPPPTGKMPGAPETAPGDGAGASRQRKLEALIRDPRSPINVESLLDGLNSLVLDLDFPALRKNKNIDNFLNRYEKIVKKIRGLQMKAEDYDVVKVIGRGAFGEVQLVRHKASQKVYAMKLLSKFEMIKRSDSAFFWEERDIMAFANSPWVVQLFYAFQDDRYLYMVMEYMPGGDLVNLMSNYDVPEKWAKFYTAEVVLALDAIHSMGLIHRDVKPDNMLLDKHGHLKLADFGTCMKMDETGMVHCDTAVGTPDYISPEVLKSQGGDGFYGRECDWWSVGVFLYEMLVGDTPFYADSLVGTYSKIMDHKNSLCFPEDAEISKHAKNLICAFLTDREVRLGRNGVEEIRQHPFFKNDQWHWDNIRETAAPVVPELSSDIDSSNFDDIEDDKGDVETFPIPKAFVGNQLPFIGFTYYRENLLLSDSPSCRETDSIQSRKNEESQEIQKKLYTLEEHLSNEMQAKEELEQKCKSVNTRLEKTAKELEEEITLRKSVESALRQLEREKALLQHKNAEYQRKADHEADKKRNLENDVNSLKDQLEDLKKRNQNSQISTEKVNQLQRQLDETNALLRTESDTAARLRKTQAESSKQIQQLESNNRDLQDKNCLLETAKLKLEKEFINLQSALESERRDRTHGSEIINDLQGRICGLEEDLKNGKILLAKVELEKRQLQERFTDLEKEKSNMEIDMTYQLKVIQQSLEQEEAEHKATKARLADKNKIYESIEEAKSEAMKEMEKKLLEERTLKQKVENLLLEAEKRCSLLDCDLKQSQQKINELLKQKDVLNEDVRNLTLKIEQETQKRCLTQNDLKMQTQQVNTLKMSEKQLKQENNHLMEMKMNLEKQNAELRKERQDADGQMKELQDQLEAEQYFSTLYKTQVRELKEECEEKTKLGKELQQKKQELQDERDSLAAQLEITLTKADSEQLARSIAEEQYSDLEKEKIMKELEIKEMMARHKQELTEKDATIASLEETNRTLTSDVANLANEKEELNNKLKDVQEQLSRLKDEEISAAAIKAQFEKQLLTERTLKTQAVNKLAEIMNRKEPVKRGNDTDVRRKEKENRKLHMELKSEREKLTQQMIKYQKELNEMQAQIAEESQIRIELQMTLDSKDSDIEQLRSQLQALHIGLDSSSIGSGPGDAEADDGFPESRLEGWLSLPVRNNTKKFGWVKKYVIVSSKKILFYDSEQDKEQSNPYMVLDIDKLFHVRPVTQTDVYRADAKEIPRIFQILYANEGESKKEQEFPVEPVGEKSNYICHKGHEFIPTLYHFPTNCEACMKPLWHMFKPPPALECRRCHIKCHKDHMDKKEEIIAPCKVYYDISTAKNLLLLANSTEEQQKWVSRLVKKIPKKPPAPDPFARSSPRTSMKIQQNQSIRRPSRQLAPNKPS

| IC50 | Structure (SMILES) |
| --- | --- |
| 5 to 50 nM | [H][C@]1(Oc2ncccc2C(N)=O)C[C@@]2(C[C@H](NC(=O)c3nn(C(C)(C)C(N)=O)c4cc(-c5cnn(C)c5)ccc34)C2)C1 (stereo partly drawn) [Example 408, 1-(1-amino-2-methyl-1-oxopropan-2-yl)-N-((aR)-6-((3-carbamoylpyridin-2-yl)oxy)spiro[3.3]heptan-2-yl)-6-(1-methyl-1H-pyrazol-4-yl)-1H-indazole-3-carboxamide, TFA] |
| < 5 nM | CC(C)(C(N)=O)n1nc(C(=O)N[C@H]2CC3(C2)C[C@H](Oc2ncccc2C(N)=O)C3)c2ccc(-c3cnn(C(F)F)c3)cc21 (stereo partly drawn) [Example 409, 1-(1-amino-2-methyl-1-oxopropan-2-yl)-N-((aR)-6-((3-carbamoylpyridin-2-yl)oxy)spiro[3.3]heptan-2-yl)-6-(1-(difluoromethyl)-1H-pyrazol-4-yl)-1H-indazole-3-carboxamide, TFA] |
| 5 to 50 nM | [H][C@]1(Oc2ncccc2C(N)=O)C[C@@]2(C[C@H](NC(=O)c3nn(C(C)(C)C(N)=O)c4cc(OCCC(F)(F)F)ccc34)C2)C1 (stereo partly drawn) [Example 410, 1-(1-amino-2-methyl-1-oxopropan-2-yl)-N-((aR)-6-((3-carbamoylpyridin-2-yl)oxy)spiro[3.3]heptan-2-yl)-6-(3,3,3-trifluoropropoxy)-1H-indazole-3-carboxamide, TFA] |
| 5 to 50 nM | [H][C@]1(Oc2ncccc2C(N)=O)C[C@@]2(C[C@H](NC(=O)c3nn(C(C)(C)C#N)c4cc(OCCC(F)(F)F)ccc34)C2)C1 (stereo partly drawn) [Example 411, N-((aR)-6-((3-carbamoylpyridin-2-yl)oxy)spiro[3.3]heptan-2-yl)-1-(2-cyanopropan-2-yl)-6-(3,3,3-trifluoropropoxy)-1H-indazole-3-carboxamide, TFA] |
| 5 to 50 nM | CC(C)(O)COc1ccc2c(C(=O)N[C@H]3CC4(C3)C[C@H](Oc3ncccc3C(N)=O)C4)nn(C(C)(C)C(N)=O)c2c1 (stereo partly drawn) [Example 412, 1-(1-amino-2-methyl-1-oxopropan-2-yl)-N-((aR)-6-((3-carbamoylpyridin-2-yl)oxy)spiro[3.3]heptan-2-yl)-6-(2-hydroxy-2-methylpropoxy)-1H-indazole-3-carboxamide, TFA] |
| 5 to 50 nM | NC(=O)c1cccnc1O[C@H]1CC2(C[C@H](NC(=O)c3cnn4cc(OCC5(O)CC(F)(F)C5)ccc34)C2)C1 (stereo partly drawn) [Example 413, N-((aR)-6-((3-carbamoylpyridin-2-yl)oxy)spiro[3.3]heptan-2-yl)-6-((3,3-difluoro-1-hydroxycyclobutyl)methoxy)pyrazolo[1,5-a]pyridine-3-carboxamide, TFA] |
| < 5 nM | NC(=O)c1cccnc1O[C@H]1CC2(C[C@H](NC(=O)c3cnn4c(C5CC5)c(OCC5(O)CC(F)(F)C5)ccc34)C2)C1 (stereo partly drawn) [Example 415, N-((aR)-6-((3-carbamoylpyridin-2-yl)oxy)spiro[3.3]heptan-2-yl)-7-cyclopropyl-6-((3,3-difluoro-1-hydroxycyclobutyl)methoxy)pyrazolo[1,5-a]pyridine-3-carboxamide, TFA] |
| 5 to 50 nM | CN(C)Cc1nc(C(=O)N[C@H]2CC3(C2)C[C@H](Oc2ncccc2C(N)=O)C3)c2ccc(OCc3ccccc3)cn12 (stereo partly drawn) [Example 416, 6-(benzyloxy)-N-((aR)-6-((3-carbamoylpyridin-2-yl)oxy)spiro[3.3]heptan-2-yl)-3-((dimethylamino)melhyl)imidazo[1,5-a]pyridine-1-carboxamide, TFA] |
| 5 to 50 nM | NC(=O)c1cccnc1OC1CC2(CC(NC(=O)c3cnc(-c4ccc(S(=O)(=O)C5CC5)cc4)s3)C2)C1 [Example 417, N-((aR)-6-((3-carbainoylpyridin-2-yl)oxy)spiro[3.3]heptan-2-yl)-2-(4-(cyclopropylsulfonyl)phenyl)thiazole-5-carboxamide, TFA] |
| 5 to 50 nM | N#Cc1ccc(-c2ncc(C(=O)NC3CC4(C3)CC(Oc3ncccc3C(N)=O)C4)s2)cc1 [Example 418, N-((aR)-6-((3-carbamoylpyridin-2-yl)oxy)spiro[3.3]heptan-2-yl)-2-(4-cyanophenyl)thiazole-5-carboxamide, TFA] |
| 50 to 250 nM | CNC(=O)c1ccc(-c2ncc(C(=O)NC3CC4(C3)CC(Oc3ncccc3C(N)=O)C4)s2)cc1F [Example 419, N-((aR)-6-((3-carbamoylpyridin-2-yl)oxy)spiro[3.3]heptan-2-yl)-2-(3-fluoro-4-(methylcarbamoyl)phenyl)thiazole-5-carboxamide, TFA] |
| 5 to 50 nM | N#Cc1cccc(-c2ncc(C(=O)NC3CC4(C3)CC(Oc3ncccc3C(N)=O)C4)s2)c1 [Example 420, N-((aR)-6-((3-carbamoylpyridin-2-yl)oxy)spiro[3.3]heptan-2-yl)-2-(3-cyanophenyl)thiazole-5-carboxamide, TFA] |
| < 5 nM | Cc1ncc(-c2ccc3c(C(=O)NC4CC5(C4)CC(Oc4ncccc4C(N)=O)C5)nc(C(F)F)n3c2)s1 [Example 436, N-((aR)-6-((3-carbamoylpyridin-2-yl)oxy)spiro[3.3]heptan-2-yl)-3-(difluoromethyl)-6-(2-methylthiazol-5-yl)imidazo[1,5-a]pyridine-1-carboxamide] |

Same assay, conditions: read-out: ROCK2 Activity (ROCK2 IC50); 5 μM ATP, 1.5 μM peptide substrate, pH 7.5

| IC50 | Structure (SMILES) |
| --- | --- |
| 5 to 50 nM | NC(=O)c1cccnc1OC1CC2(CC(NC(=O)c3nc(Br)n4ccccc34)C2)C1 [Example 421, 3-bromo-N-((aR)-6-((3-carbamoylpyridin-2-yl)oxy)spiro[3.3]heptan-2-yl)imidazo[1,5-a]pyridine-1-carboxamide] |
| 5 to 50 nM | CN1CCN(c2cc(C(=O)NC3CC4(C3)CC(Oc3ncccc3C(N)=O)C4)cc(C(F)(F)F)c2)CC1 [Example 422, 2-(((aR)-6-(3-(4-methylpiperazin-1-yl)-5-(trifluoromethyl)benzamido)spiro[3.3]heptan-2-yl)oxy)nicotinamide] |
| 5 to 50 nM | CC(C)(C)c1cccc(C(=O)NC2CC3(C2)CC(Oc2ncccc2C(N)=O)C3)c1 [Example 423, 2-(((aR)-6-(3-(tert-butyl)benzamido)spiro[3.3]heptan-2-yl)oxy)nicotinamide] |
| 5 to 50 nM | Cn1cc2c(C(=O)NC3CC4(C3)CC(Oc3ncccc3C(N)=O)C4)cc(Br)cc2n1 [Example 424, 6-bromo-N-((aR)-6-((3-carbamoylpyridin-2-yl)oxy)spiro[3.3]heptan-2-yl)-2-methyl-2H-indazole-4-carboxamide] |
| 5 to 50 nM | Cn1ncc2c(C(=O)NC3CC4(C3)CC(Oc3ncccc3C(N)=O)C4)cc(Br)cc21 [Example 425, 6-bromo-N-((aR)-6-((3-carbamoylpyridin-2-yl)oxy)spiro[3.3]heptan-2-yl)-1-methyl-1H-indazole-4-carboxamide] |
| 5 to 50 nM | NC(=O)c1cccnc1OC1CC2(CC(NC(=O)c3cc(C(F)(F)F)cc4c3NC(=O)OC4)C2)C1 [Example 426, N-((aR)-6-((3-carbamoylpyridin-2-yl)oxy)spiro[3.3]heptan-2-yl)-2-oxo-6-(trifluoromethyl)-1,4-dihydro-2H-benzo[d][1,3]oxazine-8-carboxamide] |
| 5 to 50 nM | NC(=O)c1cccnc1OC1CC2(CC(NC(=O)c3cc(Br)cc(C(F)(F)F)c3)C2)C1 [Example 427, 2-(((aR)-6-(3-bromo-5-(trifluoromethyl)benzamido)spiro[3.3]heptan-2-yl)oxy)nicotinamide] |
| < 5 nM | Cn1cc(-c2cc(C(=O)NC3CC4(C3)CC(Oc3ncccc3C(N)=O)C4)cc(C(F)(F)F)c2)cn1 [Example 428, 2-(((aR)-6-(3-(1-methyl-1H-pyrazol-4-yl)-5-(trifluoromethyl)benzamido)spiro[3.3]heptan-2-yl)oxy)nicotinamide] |
| 5 to 50 nM | NC(=O)c1cccnc1OC1CC2(CC(NC(=O)c3nc(C(F)(F)F)n4cc(Br)ccc34)C2)C1 [Example 429, 6-bromo-N-((aR)-6-((3-carbamoylpyridin-2-yl)oxy)spiro[3.3]heptan-2-yl)-3-(trifluoromethyl)imidazo[1,5-a]pyridine-1-carboxamide] |
| 5 to 50 nM | NC(=O)c1cccnc1OC1CC2(CC(NC(=O)c3nc(C(F)(F)F)n4ccccc34)C2)C1 [Example 430, N-((aR)-6-((3-carbamoylpyridin-2-yl)oxy)spiro[3.3]heptan-2-yl)-3-(trifluoromethyl)imidazo[1,5-a]pyridine-1-carboxamide] |
| 5 to 50 nM | NC(=O)c1cccnc1OC1CC2(CC(NC(=O)c3nc(C(F)(F)F)n4cc(OCc5ccccc5)ccc34)C2)C1 [Example 431, 6-(benzyloxy)-N-((aR)-6-((3-carbamoylpyridin-2-yl)oxy)spiro[3.3]heptan-2-yl)-3-(trifluoromethyl)imidazo[1,5-a]pyridine-1-carboxamide] |
| 5 to 50 nM | NC(=O)c1cccnc1OC1CC2(CC(NC(=O)c3nc(C(F)(F)F)n4cc(OS(=O)(=O)C(F)(F)F)ccc34)C2)C1 [Example 432, 1-(((aR)-6-((3-carbamoylpyridin-2-yl)oxy)spiro[3.3]heptan-2-yl)carbamoyl)-3-(trifluoromethyl)imidazo[1,5-a]pyridin-6-yl Trifluoromethanesulfonate] |
| < 5 nM | Cn1cc(-c2ccc3c(C(=O)NC4CC5(C4)CC(Oc4ncccc4C(N)=O)C5)nc(C(F)(F)F)n3c2)cn1 [Example 433, N-((aR)-6-((3-carbamoylpyridin-2-yl)oxy)spiro[3.3]heptan-2-yl)-6-(1-methyl-1H-pyrazol-4-yl)-3-(trifluoromethyl)imidazo[1,5-a]pyridine-1-carboxamide] |
| 5 to 50 nM | CC(C)(O)COc1ccc2c(C(=O)NC3CC4(C3)CC(Oc3ncccc3C(N)=O)C4)nc(C(F)(F)F)n2c1 [Example 434, N-((aR)-6-((3-carbamoylpyridin-2-yl)oxy)spiro[3.3]heptan-2-yl)-6-(2-hydroxy-2-methylpropoxy)-3-(trifluoromethyl)imidazo[1,5-a]pyridine-1-carboxamide] |
| < 5 nM | NC(=O)c1cccnc1OC1CC2(CC(NC(=O)c3nc(C(F)F)n4cc(OCc5ccccc5)ccc34)C2)C1 [Example 435, 6-(benzyloxy)-N-((aR)-6-((3-carbamoylpyridin-2-yl)oxy)spiro[3.3]heptan-2-yl)-3-(difluoromethyl)imidazo[1,5-a]pyridine-1-carboxamide] |
| 5 to 50 nM | Cn1cncc1-c1ccc2c(C(=O)NC3CC4(C3)CC(Oc3ncccc3C(N)=O)C4)nc(C(F)F)n2c1 [Example 437, N-((aR)-6-((3-carbamoylpyridin-2-yl)oxy)spiro[3.3]heptan-2-yl)-3-(difluoromethyl)-6-(1-methyl-1H-imidazol-5-yl)imidazo[1,5-a]pyridine-1-carboxamide] |

Source: patent US10829501B2 (BRISTOL-MYERS SQUIBB COMPANY, priority 2016, dated 2020)
